The structures appear in SMILES notation. Read-outs that look alike come from different tables or passages of the source.

Results on five compounds are retold here after US10168342B2, “Lipid probes and uses thereof” (THE SCRIPPS RESEARCH INSTITUTE, priority 2015, dated 2019).

Assay [1] concerns the target T1, AEA-DA lipid probe targets in Neuro2a cells (Mus musculus, UniProt Q8R0X7).
T1 sequence (Q8R0X7 1-568): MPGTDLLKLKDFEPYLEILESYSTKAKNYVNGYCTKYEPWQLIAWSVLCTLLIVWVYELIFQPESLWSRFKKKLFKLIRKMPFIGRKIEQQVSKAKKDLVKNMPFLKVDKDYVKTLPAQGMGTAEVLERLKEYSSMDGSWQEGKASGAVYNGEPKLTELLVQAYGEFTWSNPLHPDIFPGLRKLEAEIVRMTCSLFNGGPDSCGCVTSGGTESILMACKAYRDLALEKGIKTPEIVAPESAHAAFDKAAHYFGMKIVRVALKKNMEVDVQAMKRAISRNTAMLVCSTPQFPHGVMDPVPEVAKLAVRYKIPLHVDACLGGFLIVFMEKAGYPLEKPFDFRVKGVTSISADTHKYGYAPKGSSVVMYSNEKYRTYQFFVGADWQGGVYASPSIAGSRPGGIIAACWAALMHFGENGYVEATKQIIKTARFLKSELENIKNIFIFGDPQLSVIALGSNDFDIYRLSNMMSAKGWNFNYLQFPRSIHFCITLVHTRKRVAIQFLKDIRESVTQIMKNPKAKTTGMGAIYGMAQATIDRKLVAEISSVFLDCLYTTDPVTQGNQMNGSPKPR
The note with it: for SILAC ratio, SGPL1 (O95470): Neuro2a cells, AEA-DA probe.

Assay [2] has as its target AEA-DA lipid probe targets in Neuro2a cells (Mus musculus, UniProt Q8VDQ1).
In assay [3] the target is T2, AEA-DA lipid probe targets in Neuro2a cells (Mus musculus, UniProt P57776).
T2 sequence (P57776 1-281): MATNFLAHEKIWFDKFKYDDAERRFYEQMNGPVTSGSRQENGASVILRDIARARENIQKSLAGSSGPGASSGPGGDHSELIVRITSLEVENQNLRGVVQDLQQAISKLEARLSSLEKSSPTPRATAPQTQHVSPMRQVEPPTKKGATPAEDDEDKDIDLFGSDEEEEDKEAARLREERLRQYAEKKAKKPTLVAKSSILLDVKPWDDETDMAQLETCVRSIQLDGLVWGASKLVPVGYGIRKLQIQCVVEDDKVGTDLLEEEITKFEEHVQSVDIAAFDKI

In assay [4] the target is T3, AEA-DA lipid probe targets in Neuro2a cells (Mus musculus, UniProt Q8BH59).
T3 sequence (Q8BH59 1-677): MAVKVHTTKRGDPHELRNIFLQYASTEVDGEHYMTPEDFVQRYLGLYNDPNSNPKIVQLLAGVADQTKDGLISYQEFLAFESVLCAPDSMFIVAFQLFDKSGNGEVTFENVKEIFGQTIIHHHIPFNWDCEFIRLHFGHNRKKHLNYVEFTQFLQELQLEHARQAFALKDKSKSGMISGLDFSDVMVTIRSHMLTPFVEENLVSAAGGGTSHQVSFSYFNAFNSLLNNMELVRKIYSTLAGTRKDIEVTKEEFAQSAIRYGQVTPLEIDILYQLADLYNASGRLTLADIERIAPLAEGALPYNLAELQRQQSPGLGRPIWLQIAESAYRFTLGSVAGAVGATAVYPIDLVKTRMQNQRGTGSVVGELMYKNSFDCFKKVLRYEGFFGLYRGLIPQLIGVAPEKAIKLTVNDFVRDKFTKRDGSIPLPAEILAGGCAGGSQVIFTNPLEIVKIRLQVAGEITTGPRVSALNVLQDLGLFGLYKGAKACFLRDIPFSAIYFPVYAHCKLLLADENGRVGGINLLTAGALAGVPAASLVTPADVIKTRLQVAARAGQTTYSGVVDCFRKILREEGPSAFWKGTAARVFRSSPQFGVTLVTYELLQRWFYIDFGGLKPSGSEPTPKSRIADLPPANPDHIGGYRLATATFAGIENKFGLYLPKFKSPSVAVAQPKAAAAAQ

Assay [5] concerns the target AEA-DA lipid probe targets in Neuro2a cells (Mus musculus, UniProt P52019). The settings on record: for SILAC ratio, SQLE (Q14534): Neuro2a cells, AEA-DA probe.
The target in assay [6] is T4, AEA-DA lipid probe targets in Neuro2a cells (Mus musculus, UniProt Q7TMK9).
T4 sequence (Q7TMK9 1-623): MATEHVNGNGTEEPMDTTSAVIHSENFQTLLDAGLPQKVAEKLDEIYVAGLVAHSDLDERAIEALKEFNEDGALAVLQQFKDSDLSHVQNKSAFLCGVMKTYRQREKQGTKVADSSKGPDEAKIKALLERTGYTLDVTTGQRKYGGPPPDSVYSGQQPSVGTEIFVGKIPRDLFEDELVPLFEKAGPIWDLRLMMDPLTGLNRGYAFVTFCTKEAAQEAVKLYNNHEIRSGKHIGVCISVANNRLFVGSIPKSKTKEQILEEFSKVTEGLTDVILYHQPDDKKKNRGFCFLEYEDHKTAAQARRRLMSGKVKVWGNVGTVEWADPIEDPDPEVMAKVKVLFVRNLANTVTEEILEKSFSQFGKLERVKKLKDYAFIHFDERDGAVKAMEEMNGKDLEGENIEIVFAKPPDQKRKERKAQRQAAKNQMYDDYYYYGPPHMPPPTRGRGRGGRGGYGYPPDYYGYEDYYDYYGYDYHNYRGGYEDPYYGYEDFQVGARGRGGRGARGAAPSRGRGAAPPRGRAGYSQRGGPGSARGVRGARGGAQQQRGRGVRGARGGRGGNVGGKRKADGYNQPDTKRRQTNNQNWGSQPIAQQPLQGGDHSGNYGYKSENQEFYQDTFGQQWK

The target of assay [7] is T5, AEA-DA lipid probe targets in Neuro2a cells (Mus musculus, UniProt Q5U680).
T5 sequence (Q5U680 1-274): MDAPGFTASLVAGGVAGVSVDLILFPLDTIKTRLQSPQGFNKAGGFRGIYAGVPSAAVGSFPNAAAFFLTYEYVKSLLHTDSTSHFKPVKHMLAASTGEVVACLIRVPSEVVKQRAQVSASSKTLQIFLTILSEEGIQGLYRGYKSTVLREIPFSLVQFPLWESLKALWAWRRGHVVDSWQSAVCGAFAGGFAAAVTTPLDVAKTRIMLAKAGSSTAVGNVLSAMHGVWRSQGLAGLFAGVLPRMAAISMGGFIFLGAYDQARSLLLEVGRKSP

AEA-DA lipid probe targets in Neuro2a cells (Mus musculus, UniProt P52019), sequence (P52019 whole entry): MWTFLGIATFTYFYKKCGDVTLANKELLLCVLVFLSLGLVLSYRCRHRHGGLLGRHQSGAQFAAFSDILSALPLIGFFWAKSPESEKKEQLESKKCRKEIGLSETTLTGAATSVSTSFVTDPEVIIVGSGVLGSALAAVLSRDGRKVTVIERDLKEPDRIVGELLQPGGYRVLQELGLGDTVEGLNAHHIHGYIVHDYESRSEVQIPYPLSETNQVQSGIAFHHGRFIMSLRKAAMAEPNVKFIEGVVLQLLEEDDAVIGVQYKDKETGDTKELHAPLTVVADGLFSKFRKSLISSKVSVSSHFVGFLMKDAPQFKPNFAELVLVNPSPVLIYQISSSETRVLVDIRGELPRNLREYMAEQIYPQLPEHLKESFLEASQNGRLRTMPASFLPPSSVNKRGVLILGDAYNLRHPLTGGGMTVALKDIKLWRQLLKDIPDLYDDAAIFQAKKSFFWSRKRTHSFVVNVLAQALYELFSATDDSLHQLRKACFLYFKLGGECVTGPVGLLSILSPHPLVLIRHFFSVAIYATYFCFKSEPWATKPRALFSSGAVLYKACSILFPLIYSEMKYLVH
AEA-DA lipid probe targets in Neuro2a cells (Mus musculus, UniProt Q8VDQ1), sequence (Q8VDQ1 whole entry): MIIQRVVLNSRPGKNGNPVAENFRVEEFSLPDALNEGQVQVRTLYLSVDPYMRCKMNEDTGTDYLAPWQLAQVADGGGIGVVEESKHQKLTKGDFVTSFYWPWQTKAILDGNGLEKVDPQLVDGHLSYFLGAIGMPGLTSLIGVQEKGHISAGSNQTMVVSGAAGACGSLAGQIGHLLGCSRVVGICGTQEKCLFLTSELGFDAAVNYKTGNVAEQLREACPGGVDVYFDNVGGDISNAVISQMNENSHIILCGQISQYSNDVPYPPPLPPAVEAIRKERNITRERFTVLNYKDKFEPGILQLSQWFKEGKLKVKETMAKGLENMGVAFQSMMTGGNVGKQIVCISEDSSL

Consider `C=CCN(C)CCCCCCOc1ccc(C(=O)c2ccc(Br)cc2)c(F)c1` [Ro 48-8071, reference compound], for which, in assay [1] (competitor 25 μM), the “SILAC ratio, SGPL1 (O95470)” value was 1.2 and the “SILAC ratio, Sgpl1” value came out at 1.2. For the same compound, in assay [2] (competitor 25 μM), the “SILAC ratio, Ptgr2” value is listed as 1.1. In addition, the “SILAC ratio Eef1d” value in assay [3] (competitor 25 μM) is recorded as 0.9. Also, the “SILAC ratio Slc25a12” value in assay [4] (competitor 25 μM) is 1.0. In addition, in assay [5] (competitor 25 μM), the “SILAC ratio, SQLE (Q14534)” value was determined as 1.0 and the “SILAC ratio Sqle” value came out at 1.0. For the same compound, the “SILAC ratio Syncrip” value in assay [6] (competitor 25 μM) came to 0.8. Besides, the “SILAC ratio, Slc25a26” value in assay [7] (competitor 25 μM) is given as 0.7.
`CN1CCN(C(=O)c2[nH]c3ccc([N+](=O)[O-])cc3c2-c2ccccc2)CC1` [MJN228, (4-Methylpiperazin-1-yl)(5-nitro-3-phenyl-1H-indol-2-yl)methanone]: the “SILAC ratio, SGPL1 (O95470)” value in assay [1] (competitor 25 μM) came out at 1.5. Besides, the “SILAC ratio, Sgpl1” value in assay [1] (competitor 10 μM) worked out at 1.3; in assay [1] (competitor 25 μM) it was 1.5; in assay [1] (competitor 50 μM) it was 1.8; in assay [1] (competitor 100 μM), 2.7. In addition, the “SILAC ratio, Ptgr2” value was 1.2 in assay [2] (competitor 10 μM), 1.2 in assay [2] (competitor 25 μM), 1.0 in assay [2] (competitor 50 μM) and 1.5 in assay [2] (competitor 100 μM). Further, the “SILAC ratio Eef1d” value in assay [3] (competitor 25 μM) is given as 1.3; in assay [3] (competitor 100 μM) it was 1.4. For the same compound, the “SILAC ratio Slc25a12” value in assay [4] (competitor 10 μM) was determined as 1.0; in assay [4] (competitor 25 μM) it was 1.0; in assay [4] (competitor 50 μM) it was 0.9; in assay [4] (competitor 100 μM) it was 1.0. Further, the “SILAC ratio, SQLE (Q14534)” value in assay [5] (competitor 25 μM) was 1.5. Moreover, the figures for the “SILAC ratio Sqle” value in assay [5] (competitor 10 μM), in assay [5] (competitor 25 μM) and in assay [5] (competitor 100 μM) were 1.3, 1.5 and 2.1, respectively. The “SILAC ratio Syncrip” value in assay [6] (competitor 10 μM) turned out to be 0.9; in assay [6] (competitor 25 μM), 1.2; in assay [6] (competitor 50 μM), 1.3; in assay [6] (competitor 100 μM), 1.1. The “SILAC ratio, Slc25a26” value was 0.9 in assay [7] (competitor 10 μM), 0.7 in assay [7] (competitor 25 μM), 0.3 in assay [7] (competitor 50 μM) and 0.4 in assay [7] (competitor 100 μM).
As for `CCCCC/C=C\C/C=C\C/C=C\C/C=C\CCCC(=O)NCCO` [AEA, anandamide, reference compound], in assay [1] (competitor 200 μM), the “SILAC ratio, SGPL1 (O95470)” value was found to be 2.7 and the “SILAC ratio, Sgpl1” value is 2.7. In addition, the “SILAC ratio, Ptgr2” value in assay [2] (competitor 200 μM) came to 8.7. For the same compound, the “SILAC ratio Eef1d” value in assay [3] (competitor 200 μM) is 1.1. Further, in assay [4] (competitor 200 μM), the “SILAC ratio Slc25a12” value stood at 1.1. In addition, in assay [5] (competitor 200 μM), the “SILAC ratio, SQLE (Q14534)” value is reported as 1.9 and the “SILAC ratio Sqle” value turned out to be 1.9. The “SILAC ratio Syncrip” value in assay [6] (competitor 200 μM) came out at 1.2. Moreover, the “SILAC ratio, Slc25a26” value in assay [7] (competitor 200 μM) was 1.0.
Take `CN1CCN(C(=O)c2c(-c3ccccc3)c3cc([N+](=O)[O-])ccc3n2C)CC1` [KML110, (1-Methyl-5-nitro-3-phenyl-1H-indol-2-yl)(4-methylpiperazin-1-yl)methanone]: the “SILAC ratio, Sgpl1” value in assay [1] (competitor 25 μM) was determined as 1.4. In addition, the “SILAC ratio, Ptgr2” value in assay [2] (competitor 25 μM) is listed as 1.5. In addition, in assay [3] (competitor 25 μM), the “SILAC ratio Eef1d” value worked out at 1.4. Besides, the “SILAC ratio Slc25a12” value in assay [4] (competitor 25 μM) turned out to be 1.1. The “SILAC ratio Sqle” value in assay [5] (competitor 25 μM) came out at 1.3. In assay [6] (competitor 25 μM), the “SILAC ratio Syncrip” value is listed as 1.4. Moreover, the “SILAC ratio, Slc25a26” value in assay [7] (competitor 25 μM) worked out at 0.7.
Consider `O=C(/C=C/c1cccnc1)NCCCCC1CCN(C(=O)c2ccccc2)CC1` [FK-866, reference compound], for which, in assay [1] (competitor 25 μM), the “SILAC ratio, SGPL1 (O95470)” value stood at 1.7 and the “SILAC ratio, Sgpl1” value came to 1.7. For the same compound, the “SILAC ratio, Ptgr2” value in assay [2] (competitor 25 μM) is on record as 5.2. The “SILAC ratio Eef1d” value in assay [3] (competitor 25 μM) was found to be 1.2. In assay [4] (competitor 25 μM), the “SILAC ratio Slc25a12” value amounted to 1.1. In assay [5] (competitor 25 μM), the “SILAC ratio, SQLE (Q14534)” value was 1.1 and the “SILAC ratio Sqle” value was found to be 1.1. Besides, the “SILAC ratio Syncrip” value in assay [6] (competitor 25 μM) was determined as 1.1. In addition, in assay [7] (competitor 25 μM), the “SILAC ratio, Slc25a26” value was found to be 0.8.
